Experimental data published in patent US20210208149A1, “METHODS FOR CELL PROFILING” (priority 2018, published 2021).
Structures can show the parent of a compound that is named as a salt.

Key:
A172 [1] = details: GBM cell line A172; adapted from reference [13]; cited from earlier work
U87 [2] = details: GBM cell line U87; adapted from reference [13]; cited from earlier work
U118 = details: GBM cell line U118; adapted from reference [13]; cited from earlier work
LN443 = details: GBM cell line LN443; adapted from reference [13]; cited from earlier work
HEK293S = assay: Cell proliferation assay (CCK8), fixed concentration, control cell line; format: cell-based; details: fixed test concentration per compound, Table 1 log[M]: Trequinsin −4.6, Fucoxanthin −4.8, PF04449613 −4, PF02545920 −4.6, TIC10 −5, PF04691502 −6.6, GSK1059615 −5.5, LY294002 −5, Axitinib −5, Temozolomide −5
Experimental: (§1) A wide range of approved and exploratory drugs are profiled for their ability to inhibit GBM cell proliferation. Their EC50 values against each separate cell line in the set are determined. […] Screening is performed in 96-well or 384-well or 1536-well formats.
(§2) Data was obtained from testing these compounds at fixed concentrations against normal control cells (HEK293S) alongside reference GBM cells (U87 and A172), to obtain a dataset (Table 1) within which to compare the pharmacological and pharmaceutical properties of compounds across a chosen chemotyping panel.
(§3) Data Obtained from Screening Compounds within a Chemotyping Panel Against a Control Cell Line (HEK293S) and Two Reference GBM Cell Lines (U87 and A172)

U87 [3] = assay: Cell proliferation assay (CCK8), fixed concentration, reference GBM cell line U87; format: cell-based, human; details: fixed test concentration per compound, Table 1 log[M]: Trequinsin −4.6, Fucoxanthin −4.8, PF04449613 −4, PF02545920 −4.6, TIC10 −5, PF04691502 −6.6, GSK1059615 −5.5, LY294002 −5, Axitinib −5, Temozolomide −5
Experimental: as §1, §2, §3

A172 [4] = assay: Cell proliferation assay (CCK8), fixed concentration, reference GBM cell line A172; format: cell-based, human; details: fixed test concentration per compound, Table 1 log[M]: Trequinsin −4.6, Fucoxanthin −4.8, PF04449613 −4, PF02545920 −4.6, TIC10 −5, PF04691502 −6.6, GSK1059615 −5.5, LY294002 −5, Axitinib −5, Temozolomide −5
Experimental: as §1, §2, §3

## CC(C)[C@]12O[C@H]1[C@@H]1O[C@]13[C@]1(O[C@H]1C[C@H]1C4=C(CC[C@@]13C)C(=O)OC4)[C@@H]2O [Triptolide]
A172 [1]
  EC50: 8.33 nM
U87 [2]
  EC50: 6.53 nM
U118
  EC50: 10.1 nM
LN443
  EC50: 30.8 nM

## COc1cc2c(cc1OC)-c1c/c(=N\c3c(C)cc(C)cc3C)n(C)c(=O)n1CC2 [Trequinsin]
HEK293S
  % Inhibiton HEK293: 59%
  % Proliferation HEK293: 41%
U87 [3]
  % Inhibiton U87: 11%
  % Proliferation U87: 89%
A172 [4]
  % Inhibiton A172: 37%
  % Proliferation A172: 63%

## Cn1nnc2c(C(N)=O)ncn2c1=O [Temozolomide]
HEK293S
  % Inhibiton HEK293: 0%
  % Proliferation HEK293: 100%
U87 [3]
  % Inhibiton U87: 5%
  % Proliferation U87: 95%
A172 [4]
  % Inhibiton A172: 13%
  % Proliferation A172: 87%

## Dactinmycin
A172 [1]
  EC50: 99.3 nM
U87 [2]
  EC50: 437 nM
U118
  EC50: 56.8 nM
LN443
  EC50: 19.6 nM

## O=C(O)C[C@H](O)C[C@H](O)/C=C/c1c(C2CC2)nc2ccccc2c1-c1ccc(F)cc1 [Pitavastatin]
A172 [1]
  EC50: 274 nM
U87 [2]
  EC50: 3520 nM
U118
  EC50: 1920 nM
LN443
  EC50: 83 nM

## Fucoxanthin
HEK293S
  % Inhibiton HEK293: 76%
  % Proliferation HEK293: 24%
U87 [3]
  % Inhibiton U87: 26%
  % Proliferation U87: 74%
A172 [4]
  % Inhibiton A172: 66%
  % Proliferation A172: 34%

## O=C1NC(=O)/C(=C/c2ccc3nccc(-c4ccncc4)c3c2)S1 [GSK1059615]
HEK293S
  % Inhibiton HEK293: 79%
  % Proliferation HEK293: 21%
U87 [3]
  % Inhibiton U87: 57%
  % Proliferation U87: 43%
A172 [4]
  % Inhibiton A172: 74%
  % Proliferation A172: 26%

## Cn1cc(-c2ccncc2)c(-c2ccc(OCc3ccc4ccccc4n3)cc2)n1 [PF02545920]
HEK293S
  % Inhibiton HEK293: 84%
  % Proliferation HEK293: 16%
U87 [3]
  % Inhibiton U87: 30%
  % Proliferation U87: 70%
A172 [4]
  % Inhibiton A172: 80%
  % Proliferation A172: 20%

## COc1ccc(-c2cc3c(C)nc(N)nc3n([C@H]3CC[C@H](OCCO)CC3)c2=O)cn1 [PF04691502]
HEK293S
  % Inhibiton HEK293: 45%
  % Proliferation HEK293: 55%
U87 [3]
  % Inhibiton U87: 35%
  % Proliferation U87: 65%
A172 [4]
  % Inhibiton A172: 44%
  % Proliferation A172: 56%

## C[C@H](c1nc2c(cnn2C2CCOCC2)c(=O)[nH]1)N1CC(Oc2ccccc2)C1 [PF04449613]
HEK293S
  % Inhibiton HEK293: 10%
  % Proliferation HEK293: 90%
U87 [3]
  % Inhibiton U87: −14%
  % Proliferation U87: 114%
A172 [4]
  % Inhibiton A172: 61%
  % Proliferation A172: 39%

## CC[C@]1(O)C[C@@H]2CN(CCc3c([nH]c4ccccc34)[C@@](C(=O)OC)(c3cc4c(cc3OC)N(C)[C@H]3[C@@](O)(C(N)=O)[C@H](O)[C@]5(CC)C=CCN6CC[C@]43[C@@H]65)C2)C1 [Vindesine sulfate]
A172 [1]
  EC50: 23.2 nM
U87 [2]
  EC50: 414 nM
U118
  EC50: 670 nM
LN443
  EC50: 495 nM

## CC[C@@]1(O)C(=O)OCc2c1cc1n(c2=O)Cc2cc3c(CN(C)C)c(O)ccc3nc2-1 [Topetecan]
A172 [1]
  EC50: 649 nM
U87 [2]
  EC50: 167 nM
U118
  EC50: 184 nM
LN443
  EC50: 136 nM

## COc1cccc2c1C(=O)c1c(O)c3c(c(O)c1C2=O)C[C@@](O)(C(=O)CO)C[C@@H]3O[C@H]1C[C@H](N)[C@H](O)[C@H](C)O1 [Docorubicine]
A172 [1]
  EC50: 48.8 nM
U87 [2]
  EC50: 55.1 nM
U118
  EC50: 41.1 nM
LN443
  EC50: 62.9 nM

## CCc1c2c(nc3ccc(OC(=O)N4CCC(N5CCCCC5)CC4)cc13)-c1cc3c(c(=O)n1C2)COC(=O)[C@]3(O)CC [Irinitecan]
A172 [1]
  EC50: 7970 nM
U87 [2]
  EC50: 8030 nM
U118
  EC50: 4600 nM
LN443
  EC50: 4010 nM

## COc1cccc2c1C(=O)c1c(O)c3c(c(O)c1C2=O)C[C@@](O)(C(=O)CO)C[C@@H]3O[C@H]1C[C@H](N)[C@@H](O)[C@H](C)O1 [Epirubicin]
A172 [1]
  EC50: 62.2 nM
U87 [2]
  EC50: 59.3 nM
U118
  EC50: 46.9 nM
LN443
  EC50: 41.2 nM

## Nc1ncnc2c1ncn2[C@H]1C[C@H](O)[C@@H](CO)O1 [Deoxyadenosine]
A172 [1]
  EC50: 1770 nM
U87 [2]
  EC50: 2110 nM
U118
  EC50: 590 nM

## COC(=O)C[C@](O)(CCCC(C)(C)O)C(=O)O[C@@H]1C(OC)=C[C@]23CCCN2CCc2cc4c(cc2[C@H]13)OCO4 [Homoharringtonin]
U87 [2]
  EC50: 22 nM
U118
  EC50: 1140 nM
LN443
  EC50: 28.9 nM

## CC(C)/N=c1\cc2n(-c3ccc(Cl)cc3)c3ccccc3nc-2cc1Nc1ccc(Cl)cc1 [Clofaximine]
A172 [1]
  EC50: 11900 nM
U87 [2]
  EC50: 8610 nM
U118
  EC50: 19700 nM
LN443
  EC50: 20100 nM

## COCc1c(C(C)C)nc(C(C)C)c(/C=C/[C@@H](O)C[C@@H](O)CC(=O)O)c1-c1ccc(F)cc1 [Cericastatin]
A172 [1]
  EC50: 31.7 nM
U87 [2]
  EC50: 668 nM
U118
  EC50: 741 nM
LN443
  EC50: 24 nM

## Cc1ccccc1CN1C(=O)C2=C(CCN(Cc3ccccc3)C2)N2CCN=C12 [TIC10]
HEK293S
  % Inhibiton HEK293: 83%
  % Proliferation HEK293: 17%
U87 [3]
  % Inhibiton U87: 27%
  % Proliferation U87: 73%
A172 [4]
  % Inhibiton A172: 68%
  % Proliferation A172: 32%

## O=c1cc(N2CCOCC2)oc2c(-c3ccccc3)cccc12 [LY294002]
HEK293S
  % Inhibiton HEK293: 2%
  % Proliferation HEK293: 98%
U87 [3]
  % Inhibiton U87: −17%
  % Proliferation U87: 117%
A172 [4]
  % Inhibiton A172: 42%
  % Proliferation A172: 58%

## CC[C@]1(O)C[C@H]2CN(CCc3c([nH]c4ccccc34)[C@@](C(=O)OC)(c3cc4c(cc3OC)N(C=O)[C@H]3[C@@](O)(C(=O)OC)[C@H](OC(C)=O)[C@]5(CC)C=CCN6CC[C@]43[C@@H]65)C2)C1 [Vincrinstine]
A172 [1]
  EC50: 42 nM
U87 [2]
  EC50: 1320 nM
U118
  EC50: 1190 nM
LN443
  EC50: 873 nM
